Laboratory results taken from PMC5376947, “Cytotoxicity of Zardaverine in Embryonal Rhabdomyosarcoma from a Costello Syndrome Patient” (Frontiers in Oncology, 2017).
Like-named read-outs stand apart in the source and are kept apart here.

Key:
[1] = tested on: CS242 ERMS (screening) cells; assay: CS242 ERMS (screening) cell viability assay, CellTiter-Glo, 72 h; conditions: for IC50 / viability at 18.8 µM: Homo sapiens; for viability at 18.8 µM: read-out: CS242 ERMS % Viability (max conc)
Procedure: To generate cells optimized for high-throughput screening (HTS), one vial of frozen cells from the CS242 ERMS (initial) master cell bank was thawed in a 37°C water bath for 2 min, diluted by dropwise addition of 10 volumes of PBS, pelleted at 200 × g for 5 min, resuspended in PBS, pelleted, resuspended in medium, and transferred to a T75 flask. Cells were grown to 70% confluence over 27 days, with media changes every 3 days. Cells were then detached by trypsin treatment as described above [see CS242 ERMS (Initial)] and split at 1:20 into T150 flasks, giving 20 individual cultures at passage 7. After growth for a further 27 days with media changes every 3 days, cells reached 70% confluence and were detached and frozen as described above [see CS242 ERMS (Initial)] to give a working cell bank at passage 8.
Cell growth in 384-well plates was assessed daily for 5 days to determine the optimal starting cell number giving progressive growth suitable for a 72-h cell viability assay. One vial of CS242 ERMS cells was thawed from the screening bank and grown in a T75 flask until confluence was >70%, after which cells were detached using trypsin and counted as described above [see CS242 ERMS (Zardaverine Resistant)].
Using an electronic 16-channel pipettor (Finnpipette Novus MCP16), 40 μl of each cell dilution was dispensed into two columns of a TC-treated opaque white 384-well plate, giving a range of 10,000 to 78 cells/well. Columns 1, 2, 23, and 24 were filled with media alone (40 μl/well). Five replicate plates were covered with MicroClime environmental lids (Labcyte) to minimize evaporation and incubated at 37°C, 5% CO2 for 24, 48, 72, 96, and 120 h, respectively. A sixth plate was prepared for determination of cell viability at the time of cell seeding. To determine cell viability, plates were allowed to cool to room temperature for 1 h after removal from 37°C incubation, 20 μl/well of CellTiter-Glo was added using a MicroFlo Select microplate reagent dispenser (BioTek, Winooski, VT, USA), and luminescence was measured after an additional 30 min at room temperature using an EnVision microplate reader (PerkinElmer, Waltham, MA, USA).
The IC50 of dactinomycin was determined using cells passaged once from the CS242 ERMS (screening) cell bank [see CS242 ERMS (Screening)]. Cells were thawed, grown to 70% confluence over 3 days in a T75 flask, detached by trypsin treatment, seeded at 1,250 cells in 30 μl of media/well in 384-well opaque white TC plates, and allowed to attach overnight. […] After 72 h of cell growth in the presence of dactinomycin, 20 μl of CellTiter-Glo was added, and cell viability was determined as described above (see Cell Viability Assay Development). Percent viability was determined from luminescence values using high controls (no dactinomycin) and low controls (media alone; no cells), and IC50 values were calculated using four-parameter dose–response curve fitting analysis in GraphPad Prism.
The 2,000-compound Microsource Spectrum library was screened using a fresh batch of CS242 ERMS (screening) cells for each HTS run, prepared as described above (see Cell Viability Assay Development). […] Media alone was added to low control (background) wells in columns 2 and 24. Plates were covered using MicroClime environmental lids (Labcyte), and cells were allowed to attach overnight (≤12 h) at 37°C in an atmosphere of 5% CO2.
Compounds were delivered to columns 3–22 of assay plates containing attached cells via an intermediate dilution. […] Likewise, DMSO was added to columns 1, 2, 23, and 24 for high and low controls, matching the 0.06% DMSO in the test wells.

[2] = tested on: glucocorticoid receptor (GR) activation; assay: MMTV reporter gene assay (dexamethasone-induced firefly luciferase) in HeLa; type: cell-based; conditions: Homo sapiens, 24 h, 100 nM dexamethasone, GL4.36[luc2P/MMTV/Hygro], read-out: IC50, reversal of dexamethasone activation of luciferase expression
Procedure: (§1) HeLa cells were seeded in 10 cm^2 dishes at 2 million cells/dish, in phenol red-free DMEM containing 4 mM L-glutamine and 5% CS-FBS, and allowed to attach overnight. Using Lipofectamine 3000, cells were transfected with one of three combinations of vectors: GL4.36[luc2P/MMTV/Hygro] and pNL1.1.TK[Nluc/TK], pGL4.54[luc2/TK] and pNL1.1.TK[Nluc/TK], or pNL1.1.TK[Nluc/TK] alone. Transfection proceeded for 24 h, after which the cells were harvested and seeded into 384-well opaque white plates by adding 2,500 cells/well in 20 μl fresh media to 5 μl media containing serially diluted zardaverine (15 point, twofold serial dilution, 0.12 nM to 2.0 μM final concentration) and dexamethasone (0 or 100 nM final concentration). After 12 and 24 h, plates were assayed for expression of firefly and NanoLuc luciferases using Nano-Glo® Dual-Luciferase® Reporter, or cell viability using CellTiter-Glo.
(§2) We selected the inducible GL4.36[luc2P/MMTV/Hygro] vector to determine whether zardaverine inhibited gene expression driven by GR activation. This vector expresses firefly luciferase under the control of the MMTV, which contains steroid response elements that activate gene expression in response to glucocorticoids such as dexamethasone. […]

[3] = tested on: NanoLuc luciferase levels; assay: NanoLuc luciferase (pNL1.1.TK[Nluc/TK]) levels in transfected HeLa; type: cell-based, human; conditions: 12 and 24 h, all three cell populations
Procedure: as §1, §2

[4] = tested on: HeLa cells; assay: Cell viability (CellTiter-Glo) of HeLa transfected with NanoLuc vector only, 12 and 24 h; type: cell-based, human; conditions: 0.12 nM to 2.0 μM
Procedure: as §1

[5] = tested on: PDE3B; parameters: method as in PMID 15576036; conditions: ref [14], read-out: Reported PDE inhibition IC50; cited from earlier work
[6] = tested on: PDE4B; parameters: method as in PMID 15576036; conditions: ref [14], read-out: Reported PDE inhibition IC50; cited from earlier work
[7] = tested on: PDEs 5A, 8A, 10A, and 11A; parameters: method as in PMID 15576036; conditions: range over the four PDEs; ref [14]; read-out: IC50s against PDEs 5A, 8A, 10A, and 11A (modest inhibition); cited from earlier work
[8] = 72 h, read-out: CS242 ERMS IC50, Table 4 analogs, 72 h, mean ± SD (n = 3)
[9] = 72 h, read-out: CS242 ERMS viability IC50, Table 3 PDE inhibitor panel, 72 h, top 18.8, 75 or 93.8 μM, mean ± SD (n = 3)
[10] = 72 h, read-out: IC50 CS242 ERMS (screening), Figure 4 cell line panel, 72 h, top 7.5 μM, mean ± SD of three curve fits
[11] = 72 h, read-out: IC50 CS242 ERMS (screening), Figure 5 subpopulations, 72 h, mean ± SD of three curve fits

Structure (SMILES): O=C1CN2Cc3c(ccc(Cl)c3Cl)N=C2N1 [Anagrelide]
- inhibition of viability in Spectrum library screen ([1]; 2.5 μM, 72 h, two replicate screens): 81%
- IC50 [1, 8]: 58 ± 4 nM
- IC50 [1, 9]: 68.1 ± 1.6 nM
- IC50 [1, 10]: 25.1 ± 2.8 nM
- IC50 [1, 11]: 93 ± 14.4 nM
- viability at 18.8 µM [1]: 34.7 ± 1.5%
- cell viability at the highest concentrations in CS242 ERMS ([1]; human, 72 h, 7.5 μM): 25%

Structure (SMILES): COc1cc(-c2ccc(=O)[nH]n2)ccc1OC(F)F [Zardaverine]
- IC50 [1, 8]: 262 ± 15 nM
- IC50 [1, 9]: 409 ± 24.3 nM
- IC50 [1, 10]: 276 ± 17.6 nM
- IC50 [1, 11]: 449 ± 75.2 nM
- IC50 ([1]; 72 h, read-out: IC50 CS242 ERMS, Table 2 hit confirmation, 72 h, 16-point dose-response, top 7.5 μM, mean ± SD (n = 3)): 206 ± 4.9 nM
- viability at 18.8 µM [1]: 10 ± 0.7%
- Fold selectivity ([1]; IC50 in CS242 fibroblasts/IC50 in CS242 ERMS): >36.4
- killing of CS242 ERMS at high concentrations, in words ([1]; cell line panel dose-response, 72 h): complete killing
- IC50 [2]: 7.7 nM
- levels of NanoLuc luciferase, in words [3]: unaffected
- effect on cell viability, in words ([4]; 12 h): minimal effect
- effect on cell viability, in words ([4]; 24 h): partial effect
- IC50 [5]: 1500 nM
- IC50 [6]: 930 nM
- IC50 [7]: 14000 to 160000 nM
